Test results reported in patent publication US8268864B2, “Combination of anticholinergics and leukotriene receptor antagonists for the treatment of respiratory diseases” (Meda Pharma GmbH & Co. KG, priority 2005, dated 2012).

Key:
M1-M3 receptors = details: cited from earlier work
M3 muscarinic receptors = M3 muscarinic receptors (Homo sapiens, UniProt P20309); details: kinetics studies (Haddad et al.); cited from earlier work
[1] = inhaled; asthmatic subjects (Makker); cited from earlier work
[2] = test system: chemotactic response in the guinea pig conjunctiva; details: guinea pig conjunctiva (Chan); cited from earlier work
IL-2 release = details: R,R-glycopyrrolate alone, up to 10 μmol/l; TPA 25 nM / ionomycin 1 μg/ml
Description: (§1) Not only TNFα but also IL-2 plays an important role in inflammatory airway diseases. It is known that in certain forms of asthma (e.g. intrinsic and occupational), particular subsets of T cells produce, among others, IL-2 (Ricci et al.; J Investig Allergol Clin Immunol 1994; 4:214-20). Moreover, allergic patients have special populations of T cells which can be induced to secrete IL-2 (McHugh et al.; Clin Exp Allergy 1993; 23:137-44). […] Therefore, the influence of R,R-glycopyrrolate in combination with cysLT-receptor antagonists on TNFα- and interleukin(IL)-2-release was investigated by using human peripheral blood mononuclear cells (PBMCs). The investigations were approved by the University Ethics Committee according to the International Declarations of Helsinki and Tokyo.
(§2) PBMCs were isolated from heparinized blood samples of healthy donors by density gradient centrifugation. An equal volume of Hanks buffer (Life Technologies, Heidelberg, Germany) is added to heparinized whole blood samples. 15 ml Histopaque-1077 (Sigma, Deisenhofen, Germany) are overlayed with a maximum of 40 ml of blood/Hanks mixture were centrifuged for 30 min at room temperature (2000 rpm). A visible band containing PBMCs is transferred to a fresh tube and washed twice with Hanks-buffer. […]

TNFα release = details: R,R-glycopyrrolate alone, up to 10 μmol/l; LPS 100 ng/ml
Description: as §1, §2

[3] = inhaled; asthmatic subjects (Christie); cited from earlier work
[4] = inhaled; asthmatic subjects (Lammers); cited from earlier work
IL-2 expression = details: ovalbumin-sensitized Brown Norway rats (Lin et al.); cited from earlier work
[5] = topically into the eyes; allergic conjunctivitis in rats (Papathanassiou et al.); cited from earlier work

Chain of M3 muscarinic receptors (P20309 whole entry): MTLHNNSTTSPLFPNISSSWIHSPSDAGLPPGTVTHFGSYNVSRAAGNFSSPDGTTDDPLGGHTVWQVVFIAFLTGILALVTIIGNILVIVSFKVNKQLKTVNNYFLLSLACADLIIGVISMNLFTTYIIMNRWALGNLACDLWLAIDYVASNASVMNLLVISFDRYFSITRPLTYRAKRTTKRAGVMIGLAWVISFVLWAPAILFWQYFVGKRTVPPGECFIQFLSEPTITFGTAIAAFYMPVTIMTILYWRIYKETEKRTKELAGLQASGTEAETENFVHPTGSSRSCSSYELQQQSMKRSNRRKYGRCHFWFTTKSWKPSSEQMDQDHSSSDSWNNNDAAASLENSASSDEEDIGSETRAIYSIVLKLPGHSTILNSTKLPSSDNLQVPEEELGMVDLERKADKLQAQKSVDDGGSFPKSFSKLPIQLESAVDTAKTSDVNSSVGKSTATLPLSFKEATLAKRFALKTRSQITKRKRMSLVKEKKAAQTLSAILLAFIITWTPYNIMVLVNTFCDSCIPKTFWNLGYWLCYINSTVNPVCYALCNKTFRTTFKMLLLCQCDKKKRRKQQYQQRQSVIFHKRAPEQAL

For `C[N+]1(C)CCC(OC(=O)C(O)(c2ccccc2)C2CCCC2)C1` (stereo not shown) [Glycopyrrolate], the “selectivity in binding to the M1-M3 receptors” value (M1-M3 receptors) is listed as “no selectivity” and the “dissociation from M3 muscarinic receptors” value (M3 muscarinic receptors) is listed as “dissociates slowly”.

For `COc1cc(C(=O)NS(=O)(=O)c2ccccc2C)ccc1Cc1cn(C)c2ccc(NC(=O)OC3CCCC3)cc12` [ICI 204,219], the “protection against exercise-induced bronchoconstriction” value [1] is given as “protected significantly”.

In the case of `CN(C)C(=O)CCSC(SCCC(=O)O)c1cccc(/C=C/c2ccc3ccc(Cl)cc3n2)c1` (stereo not shown) [MK-571], the “in vivo chemotactic response” value [2] is listed as “completely inhibited”.

With `C[N+]1(C)CC[C@@H](OC(=O)[C@](O)(c2ccccc2)C2CCCC2)C1.[Br-]` [R,R-glycopyrrolate] the “influence on stimulated IL-2 release” value (IL-2 release) was “had no influence” and the “influence on LPS-induced TNFα release” value (TNFα release) was “did not influence”.

In the case of `O=C(O)CCS[C@H](c1ccccc1CCCCCCCCc1ccccc1)[C@@H](O)C(=O)O` [pobilukast (SK&F 104353), pobilukast], the LT induced bronchoconstriction [3] is listed as “inhibited significantly”.

For `CN(C)C(=O)CCS[C@H](SCCC(=O)O)c1cccc(/C=C/c2ccc3ccc(Cl)cc3n2)c1` [verlukast (MK-0679), verlukast], the “mean FEV1” value [4] is listed as “significant improvement”.

For `COc1cc(C(=O)NS(=O)(=O)c2ccccc2C)ccc1Cc1cn(C)c2ccc(NC(=O)OC3CCCC3)cc12` [zafirlukast], the IL-2 expression (IL-2 expression) is given as “able to decrease” and the “development of symptoms and mediator release” value [5] is given as “effectively inhibit”.
